# Values joined by “and” are separate entries in the source; they are usually repeats but may differ in a detail not shown here. Equal values may be shown once. Read-outs that look alike come from different tables or passages of the source.
# Key:
# [1] = tested on: pro-inflammatory cytokine production of human PBMCs; format: cell-based
# [2] = tested on: MyD88-mediated NF-kB driven SEAP reporter response; format: cell-based, human
# Rift valley fever virus = format: cell-based; details: read-out: IC50 reduction of virus replication
# [3] = tested on: human glioblastoma astrocytoma U87 cells; format: cell-based
# [4] = tested on: pro-inflammatory cytokine production in spleen cells of BALB/c and C57BL/6 mice; format: cell-based, mouse
# [5] = tested on: SEB-induced toxic shock in BALB/c mice; details: mouse, in vivo
# dengue virus = format: cell-based; details: read-out: IC50 reduction of virus replication
# [6] = target: T1, MyD88 and IRF3 interaction (Homo sapiens, UniProt Q99836); format: cell-based
# T1 construct: no number printed for the IRF3-HA plasmid; host or cells: HEK293-TLR3 (InvivoGen)
# HEK293-TLR3 cells = format: cell-based, human
# U937 cells = format: cell-based, human
# VEEV (TC-83) = tested on: VEEV (TC-83); parameters: species or system C3H/HeN mice; details: mouse, in vivo, ip
# [7] = tested on: lethal endotoxic shock (LPS) in mice; details: mouse, in vivo
# Ebola virus = format: cell-based; details: read-out: IC50 reduction of virus replication
# Lassa virus = format: cell-based; details: read-out: IC50 reduction of virus replication
# IRF3 phosphorylation = format: cell-based, human
# T1 sequence (Q99836 whole entry): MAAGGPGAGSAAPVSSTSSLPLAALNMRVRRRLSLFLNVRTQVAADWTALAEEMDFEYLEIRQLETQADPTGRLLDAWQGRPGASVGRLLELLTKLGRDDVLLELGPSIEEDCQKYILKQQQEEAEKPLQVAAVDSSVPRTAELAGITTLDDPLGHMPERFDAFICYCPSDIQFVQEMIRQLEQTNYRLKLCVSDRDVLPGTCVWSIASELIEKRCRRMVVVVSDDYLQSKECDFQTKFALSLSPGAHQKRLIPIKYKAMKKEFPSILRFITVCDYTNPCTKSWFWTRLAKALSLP
compound,measurement,setting,value
"CC(C)[C@H](NC(=O)CCc1ccccc1)C(=O)N1CCCC1 [Compound 1, Hydrocinnamoyl-L-valyl-pyrrolidine, reference compound]",IC50,[1]; read-out: IC50 IFN-γ,41 µM and 40 µM
same,IC50,[1]; read-out: IC50 IL-1β,24 µM
same,IC50,[1]; read-out: IC50 IL-6,14 µM
same,IC50,[1]; read-out: IC50 TNF-α,19 µM
same,IC50,[2],180 µM
CC(C)[C@@H](C(=O)N1CCCC1)N(CCCc1ccccc1)C(=O)[C@H]1CC[C@H](C(=O)N(CCCc2ccccc2)[C@H](C(=O)N2CCCC2)C(C)C)CC1 [Compound 4210],inhibition of cytokine production,[1],inhibited cytokine production
same,IC50,[1]; read-out: IC50 IFN-γ,0.3 µM and 0.9 µM
same,IC50,[1]; read-out: IC50 IL-1β,0.73 µM
same,IC50,[1]; read-out: IC50 IL-6,0.4 µM and 0.17 µM
same,IC50,[1]; read-out: IC50 TNF-α,0.27 µM
same,IC50,[1]; read-out: average inhibitory concentration (IC50) for most of the pro-inflammatory cytokines tested,1 to 50 µM
same,IC50,Rift valley fever virus,22 µM
same,IFN-β production,[3],increased IFN-β production in a dose dependent manner
same,RANTES production,[3],increase in RANTES production
same,inhibition of pro-inflammatory cytokine production in spleen cell cultures,[4],inhibited most of the pro-inflammatory cytokine production
same,amount giving therapeutic efficacy from toxic shock-induced death with lethal SEB challenge,[5],1 mg
same,"effect on death, post-exposure treatment",[5],delayed in death
same,protection,[5],completely protected
same,"protection, post-exposure treatment",[5],33%
same,survivability,[5],33% and 66%
same,IC50,dengue virus,31 µM
same,MyD88-associated IRF3 band after pull down with Flag antibody,[6],dose dependent decrease of IRF3 band
same,RANTES production,HEK293-TLR3 cells,increased in RANTES production
same,RANTES production,U937 cells,increase in antiviral RANTES production
same,expression of co-stimulatory molecules CD86 and CD80,U937 cells,increased expression co-stimulatory molecules such as CD86 and CD80
same,increase in IFN-β production,U937 cells,over 3 fold
same,clinical disease score,VEEV (TC-83),less clinical diseases score
same,survival,VEEV (TC-83),increased survival
same,weight loss,VEEV (TC-83),significantly prevented weight loss
same,effect on death,[7],delayed death
same,mice protected from lethal endotoxic shock,[7],33%
same,IC50,Ebola virus,42 µM
same,IC50,Lassa virus,35 µM
same,phosphorylation of IRF-3,IRF3 phosphorylation,increase in phosphorylation was observed in a dose dependent manner

# — patent US9833437B2 (priority 2014, dated 2017)
